From US11767303B2, “Compounds and methods for inhibiting viral replication and methods of treating and preventing flaviviral infections” (priority 2020, dated 2023)
Read-outs that look alike come from different tables or passages of the source.

Columns and labels:
ZIKV [1] = assay: Viral titer reduction assay, ZIKV in A549 cells; assay type: cell-based, Zika virus; conditions: Zika virus
Method: Viral Titer Reduction Assay. A viral titer reduction assay was used to determine the compounds' effect on DENV2 and ZIKV strains, as described previously. […] Human A549 lung carcinoma cells and human primary neural progenitor cells were used, as described previously. […] All experiments were performed in triplicates.

ZIKV NS3 = assay: Western blot of ZIKV NS3 and polyprotein precursor in infected A549 cells; assay type: cell-based, Zika virus; conditions: MOI 0.1, 48 hrs
Method: FIGS. 6A-6C show mechanism of action studies. […] Viral titers were quantified using plaque forming assay 48 hrs post-infection. DMSO was added to control. N=3. ***, p<0.001. […] N=3. […] Right, Band intensities of PP and NS3 normalized to the GAPDH control (N=3). […] Li et al., “Existing Drugs as Broad-Spectrum and Potent Inhibitors for Zika Virus by Targeting NS2B-NS3 Interaction,” Cell Res. 27:1046-1064 (2017), which is hereby incorporated by reference in its entirety. At 48 hrs post-infection, cells were washed, harvested, and protected by protease inhibitor cocktail prior to lysis by SDS-PAGE loading buffer. Upon incubation at 95° C. for 10 min, sample was subjected to Western blot analysis with anti-ZIKV NS3 (GTX133309, GeneTex, Inc.) and anti-GAPDH (CB1001, EMD Millipore) as primary antibodies. Error bars in all panels represent the standard deviations at each condition.
Western Blot. Western blot was performed using anti-ZIKV NS3 (GTX133309, GeneTex, Inc.) and anti-GAPDH (CB1001, EMD Millipore) antibodies, as described previously. Li et al., “Existing Drugs as Broad-Spectrum and Potent Inhibitors for Zika Virus by Targeting NS2B-NS3 Interaction,” Cell Res. 27:1046-1064 (2017) and Brecher et al., “A Conformational Switch High-Throughput Screening Assay and Allosteric Inhibition of the Flavivirus NS2B-NS3 Protease,” PLoS Pathog. […]

[2] = Pharmacokinetics in B6 mice after oral gavage; conditions: B6 mice, single oral dose 40 mg/kg, plasma
Excerpt: Pharmacokinetics. […] Fan et al., “Contributions of Hepatic and Intestinal Metabolism to the Disposition of Niclosamide, a Repurposed Drug with Poor Bioavailability,” Drug Metab. Dispos. 47:756-763 (2019), which is hereby incorporated by reference in its entirety. […] Student's t-test was used. P values<0.05 were considered statistically significant.

in vitro = conditions: not told, Perme. (cell permeability)
ZIKV [3] = assay: Immunofluorescence assay of viral protein production in A549 cells; assay type: cell-based, Zika virus; conditions: IFA with anti-E 4G2
Method: Immunofluorescence Assay. The immunofluorescence assay was performed using ZIKV-infected cells treated with DMSO or JMX0207, as described previously. Li et al., “Existing Drugs as Broad-Spectrum and Potent Inhibitors for Zika Virus by Targeting NS2B-NS3 Interaction,” Cell Res. 27:1046-1064 (2017); Li et al., “Erythrosin B is a Potent and Broad-Spectrum Orthosteric Inhibitor of the Flavivirus NS2B-NS3 Protease,” Antiviral Res. 150:217-225 (2018), which are hereby incorporated in their entirety. A mouse monoclonal pan anti-E antibody 4G2 (ATCC) and a DyLight® 488 goat anti-mouse IgG (ImmunoReagents, Inc.) were used to monitor viral E protein expression, as described previously. Li et al., “Existing Drugs as Broad-Spectrum and Potent Inhibitors for Zika Virus by Targeting NS2B-NS3 Interaction,” Cell Res. 27:1046-1064 (2017); Li et al., “Erythrosin B is a Potent and Broad-Spectrum Orthosteric Inhibitor of the Flavivirus NS2B-NS3 Protease,” Antiviral Res. 150:217-225 (2018), which are hereby incorporated in their entirety.

A549 cells = assay: WST-8 cell proliferation cytotoxicity assay; assay type: cell-based, human; conditions: A549 cells; read-out: CC50 (A549)
Method: (§1) Cytotoxicity Assay. […] All experiments were performed in triplicates.
(§2) To address this concern, next the compound cytotoxicity CC50 was measured using a WST-8 cell proliferation assay, as described previously.

[4] = WST-8 cell proliferation cytotoxicity assay; assay type: cell-based, human; conditions: human; Table 4, preliminary SAR, A549 cells; read-out: CC50
Method: as §1, §2

ZIKV PRVABC59 = assay: ZIKV viremia mouse model (A129 mice); assay type: in vivo; conditions: 20 mg/kg/day oral gavage, day 3 post-infection, vs vehicle
Method: In vivo protection efficacy. All animal studies involving infectious ZIKV were conducted at an Animal Biosafety Level 2 (ABSL-2) facility at the Wadsworth Center with Institutional Biosafety and Animal Welfare Committee approval.
A group of four-week-old A129 mice were infected by subcutaneous injection with 1.7×10^5 PFU of the PRVABC59 strain. […] Mice were observed daily for signs of illness and mortality. Viremia on day 3 post-infection (pi) was determined by plaque forming assay, and statistical analysis was performed using the unpaired, two-tailed t-test (Prism).
Finally, the in vivo antiviral efficacy was evaluated using a viremia mouse model, as described previously. Zhang et al., “Characterization of the Contemporary Zika Virus in Immunocompetent Mice,” Hum. Vaccines Immunother. 12:3107-3109 (2016) and Larocca et al., “Vaccine Protection Against Zika Virus From Brazil,” Nature 536:474-478 (2016), both of which are hereby incorporated by reference in their entirety.

[5] = Repeated oral dosing toxicity in mice; assay type: in vivo, mouse; conditions: repeated oral dosing 40 mg/kg/day for 7 days
[6] = not told

With `O=C(Nc1ccc([N+](=O)[O-])cc1Cl)c1cccc([N+](=O)[O-])c1O` [JMX0207, N-(2-Chloro-4-nitrophenyl)-2-hydroxy-3-nitrobenzamide] the EC50 (ZIKV [1]; A549, read-out: EC50-ZK) was 0.3 µM, the EC50 (ZIKV [1]; A549, read-out: EC50-ZK (A549)) was 0.3 µM and the “unprocessed viral polyprotein precursor (PP)” value (ZIKV NS3) was “dose-dependent increase of a protein with high molecular weight”. The “viral NS3 protein production” value (ZIKV NS3) was “dose-dependent reduction of viral NS3 protein production”, the “AUC0→∞ ± S.D.” value [2] was 2719 ± 1018 and the “Tmax ± S.D.” value [2] was 1.2 ± 0.5 h. For the same molecule, the “T1/2 ± S.D.” value ([2]; 40 mg/kg) was 11 ± 6.8 h, the Cmax ([2]; read-out: Cmax ± S.D.) was 145 µM and the Papp (in vitro) was greater than 1 ×10⁻⁶ cm/s. For the same molecule, the ZIKV antigen production (ZIKV [3]) was “greatly reduced ZIKV antigen production in A549 cells in a dose-dependent manner”, the CC50 (A549 cells) was 31.9 µM and the CC50 [4] was 33.9 µM. The ZIKV-induced viremia (ZIKV PRVABC59) was “significant reduction in ZIKV-induced viremia”, the sign of toxicity [5] was “did not display any sign of toxicity” and the “Perme. (cell permeability)” value [6] was 1.3 ×10⁻⁶ cm/s.
